Laboratory results reported in PubChem BioAssay AID248 (DTP/NCI, 2004).
Where “and” joins values, the source holds several entries; their conditions need not be identical. Equal entries are not always repeated. Toxic doses and inconclusive results are not listed.

Tested on: L1210 leukemia ip in BDF1 mice, survival T/C
Test: NCI In Vivo Anticancer Drug Screen. Data for tumor model L1210 Leukemia (intraperitoneal) in B6D2F1 (BDF1) mice
Details: higher = longer survival
In short: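 Mice bearing the transplanted tumor received compound or vehicle. Survival of the treated group was divided by that of the vehicle-treated control group to give the ratio.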

Nc1ncn(C2OC(CO)C(O)C2O)c(=O)n1 (stereo unspecified) was tested, and the T/C (endpoint: mean survival time, dose: 0.12 mg/kg/injection, schedule: Q01DX009 (ip), vehicle: saline) was 111 % of control, the T/C (endpoint: mean survival time, dose: 0.23 mg/kg/injection, schedule: Q01DX009 (ip), vehicle: saline) was 101 % of control and 121 % of control and the T/C (endpoint: mean survival time, dose: 0.5 mg/kg/injection, schedule: Q01DX009 (ip), vehicle: saline) was 156 % of control. The T/C (endpoint: mean survival time, dose: 0.75 mg/kg/injection, schedule: Q01DX009 (ip), vehicle: other) was 161 % of control, the T/C (endpoint: mean survival time, dose: 1.0 mg/kg/injection, schedule: Q01DX005 (oral), vehicle: saline) was 114 % of control and the T/C (endpoint: mean survival time, dose: 1.0 mg/kg/injection, schedule: Q## X008 (ip), vehicle: saline) was 121 % of control. The T/C (endpoint: mean survival time, dose: 1.0 mg/kg/injection, schedule: Q## X040 (oral), vehicle: saline) was 105 % of control, the T/C (endpoint: mean survival time, dose: 1.25 mg/kg/injection, schedule: Q01DX009 (ip), vehicle: saline) was 170 % of control and the T/C (endpoint: mean survival time, dose: 1.3 mg/kg/injection, schedule: Q03HX008 (ip), vehicle: saline) was 171 % of control. The T/C (endpoint: mean survival time, dose: 1.5 mg/kg/injection, schedule: Q01DX005 (ip), vehicle: clinical formulation) was 150 % of control, the T/C (endpoint: mean survival time, dose: 1.5 mg/kg/injection, schedule: Q01DX009 (ip), vehicle: water) was 164 % of control and 166 % of control and the T/C (endpoint: mean survival time, dose: 2.0 mg/kg/injection, schedule: Q01DX005 (oral), vehicle: saline) was 124 % of control. The T/C (endpoint: mean survival time, dose: 2.0 mg/kg/injection, schedule: Q01DX015 (ip), vehicle: other) was 159 % of control, the T/C (endpoint: mean survival time, dose: 2.0 mg/kg/injection, schedule: Q03HX008 (ip), vehicle: saline) was 155 % of control and the T/C (endpoint: mean survival time, dose: 2.0 mg/kg/injection, schedule: Q## X024 (ip), vehicle: saline) was 151 % of control. The T/C (endpoint: mean survival time, dose: 2.0 mg/kg/injection, schedule: Q## X040 (oral), vehicle: saline) was 108 % of control, the T/C (endpoint: mean survival time, dose: 2.3 mg/kg/injection, schedule: Q04DX002 (ip), vehicle: saline) was 117 % of control and 123 % of control and the T/C (endpoint: mean survival time, dose: 2.5 mg/kg/injection, schedule: Q01DX009 (ip), vehicle: carboxymethylcellulose (CMC)) was 155 % of control. The T/C (endpoint: mean survival time, dose: 3.0 mg/kg/injection, schedule: Q01DX001 (ip), vehicle: saline) was 119 % of control, the T/C (endpoint: mean survival time, dose: 3.0 mg/kg/injection, schedule: Q01DX005 (ip), vehicle: water) was 150 % of control and the T/C (endpoint: mean survival time, dose: 3.0 mg/kg/injection, schedule: Q01DX009 (ip), vehicle: saline with Tween-80) was 111 % of control. For the same compound, the T/C (endpoint: mean survival time, dose: 3.0 mg/kg/injection, schedule: Q01DX009 (oral), vehicle: saline) was 158 % of control, the T/C (endpoint: mean survival time, dose: 3.0 mg/kg/injection, schedule: Q03HX008 (ip), vehicle: saline) was 170 % of control and the T/C (endpoint: mean survival time, dose: 3.12 mg/kg/injection, schedule: Q01DX009 (ip), vehicle: saline) was 164 % of control. The T/C (endpoint: mean survival time, dose: 3.12 mg/kg/injection, schedule: Q04DX003 (ip), vehicle: water) was 157 % of control and 160 % of control, the T/C (endpoint: mean survival time, dose: 4.0 mg/kg/injection, schedule: Q## X024 (ip), vehicle: saline) was 168 % of control and the T/C (endpoint: mean survival time, dose: 6.0 mg/kg/injection, schedule: Q01DX005 (ip), vehicle: water) was 112 % of control. For the same compound, the T/C (endpoint: mean survival time, dose: 6.0 mg/kg/injection, schedule: Q01DX009 (ip), vehicle: clinical formulation) was 103 % of control, the T/C (endpoint: mean survival time, dose: 6.0 mg/kg/injection, schedule: Q01DX009 (ip), vehicle: other) was 104 % of control and the T/C (endpoint: mean survival time, dose: 6.0 mg/kg/injection, schedule: Q01DX009 (ip), vehicle: saline) was 98 % of control. For the same compound, the T/C (endpoint: mean survival time, dose: 6.0 mg/kg/injection, schedule: Q01DX009 (ip), vehicle: water) was 94 % of control, the T/C (endpoint: mean survival time, dose: 6.0 mg/kg/injection, schedule: Q01DX009 (oral), vehicle: saline) was 172 % of control and the T/C (endpoint: mean survival time, dose: 6.0 mg/kg/injection, schedule: Q## X008 (ip), vehicle: saline) was 156 % of control. For the same compound, the T/C (endpoint: mean survival time, dose: 7.2 mg/kg/injection, schedule: Q01DX009 (ip), vehicle: saline) was 111 % of control, the T/C (endpoint: mean survival time, dose: 8.0 mg/kg/injection, schedule: Q01DX005 (oral), vehicle: saline) was 164 % of control and the T/C (endpoint: mean survival time, dose: 8.0 mg/kg/injection, schedule: Q## X040 (oral), vehicle: saline) was 163 % of control. The T/C (endpoint: mean survival time, dose: 10.0 mg/kg/injection, schedule: Q01DX009 (ip), vehicle: saline) was 111 % of control, the T/C (endpoint: mean survival time, dose: 12.0 mg/kg/injection, schedule: Q01DX001 (ip), vehicle: saline) was 150 % of control and the T/C (endpoint: mean survival time, dose: 12.0 mg/kg/injection, schedule: Q01DX005 (ip), vehicle: saline) was 168 % of control. The T/C (endpoint: mean survival time, dose: 12.0 mg/kg/injection, schedule: Q01DX009 (ip), vehicle: saline) was 98 % of control, the T/C (endpoint: mean survival time, dose: 12.0 mg/kg/injection, schedule: Q## X008 (ip), vehicle: saline) was 161 % of control and 162 % of control and the T/C (endpoint: mean survival time, dose: 12.5 mg/kg/injection, schedule: Q01DX001 (ip), vehicle: saline) was 164 % of control. For the same compound, the T/C (endpoint: mean survival time, dose: 12.5 mg/kg/injection, schedule: Q01DX005 (ip), vehicle: saline) was 172 % of control, the T/C (endpoint: mean survival time, dose: 22.0 mg/kg/injection, schedule: Q01DX001 (ip), vehicle: other) was 153 % of control and the T/C (endpoint: mean survival time, dose: 22.0 mg/kg/injection, schedule: Q01DX001 (ip), vehicle: saline) was 160 % of control. The T/C (endpoint: mean survival time, dose: 24.0 mg/kg/injection, schedule: Q01DX001 (ip), vehicle: saline) was 158 % of control, the T/C (endpoint: mean survival time, dose: 24.0 mg/kg/injection, schedule: Q01DX009 (ip), vehicle: saline) was 93 % of control and the T/C (endpoint: mean survival time, dose: 24.0 mg/kg/injection, schedule: Q## X008 (ip), vehicle: saline) was 171 % of control. For the same compound, the T/C (endpoint: mean survival time, dose: 25.0 mg/kg/injection, schedule: Q01DX001 (ip), vehicle: saline) was 166 % of control and 168 % of control, the T/C (endpoint: mean survival time, dose: 32.0 mg/kg/injection, schedule: Q01DX001 (oral), vehicle: saline) was 112 % of control and the T/C (endpoint: mean survival time, dose: 32.0 mg/kg/injection, schedule: Q## X003 (oral), vehicle: saline) was 163 % of control. The T/C (endpoint: mean survival time, dose: 32.0 mg/kg/injection, schedule: Q## X024 (oral), vehicle: saline) was 173 % of control, the T/C (endpoint: mean survival time, dose: 33.0 mg/kg/injection, schedule: Q01DX001 (ip), vehicle: saline) was 153 % of control and the T/C (endpoint: mean survival time, dose: 48.0 mg/kg/injection, schedule: Q01DX009 (ip), vehicle: saline) was 102 % of control. For the same compound, the T/C (endpoint: mean survival time, dose: 64.0 mg/kg/injection, schedule: Q01DX001 (oral), vehicle: saline) was 111 % of control, the T/C (endpoint: mean survival time, dose: 64.0 mg/kg/injection, schedule: Q## X003 (oral), vehicle: saline) was 163 % of control and 164 % of control and the T/C (endpoint: mean survival time, dose: 64.0 mg/kg/injection, schedule: Q## X008 (oral), vehicle: saline) was 158 % of control. For the same compound, the T/C (endpoint: mean survival time, dose: 69.0 mg/kg/injection, schedule: Q04DX002 (ip), vehicle: saline) was 150 % of control, the T/C (endpoint: mean survival time, dose: 75.0 mg/kg/injection, schedule: Q01DX001 (ip), vehicle: other) was 168 % of control and the T/C (endpoint: mean survival time, dose: 96.0 mg/kg/injection, schedule: Q01DX001 (ip), vehicle: saline) was 174 % of control. The T/C (endpoint: mean survival time, dose: 96.0 mg/kg/injection, schedule: Q## X003 (ip), vehicle: saline) was 114 % of control, the T/C (endpoint: mean survival time, dose: 100.0 mg/kg/injection, schedule: Q01DX001 (ip), vehicle: other) was 162 % of control and the T/C (endpoint: mean survival time, dose: 125.0 mg/kg/injection, schedule: Q01DX001 (ip), vehicle: saline) was 151 % of control. The T/C (endpoint: mean survival time, dose: 150.0 mg/kg/injection, schedule: Q01DX001 (ip), vehicle: saline) was 154 % of control, the T/C (endpoint: mean survival time, dose: 200.0 mg/kg/injection, schedule: Q01DX001 (ip), vehicle: other) was 118 % of control and the T/C (endpoint: mean survival time, dose: 256.0 mg/kg/injection, schedule: Q## X003 (oral), vehicle: saline) was 171 % of control. The T/C (endpoint: mean survival time, dose: 512.0 mg/kg/injection, schedule: Q## X003 (oral), vehicle: saline) was 111 % of control, the T/C (endpoint: mean survival time, dose: 768.0 mg/kg/injection, schedule: Q01DX001 (oral), vehicle: saline) was 157 % of control and the T/C (endpoint: median survival time, dose: 0.75 mg/kg/injection, schedule: Q01DX009 (ip), vehicle: saline) was 160 % of control. The T/C (endpoint: median survival time, dose: 0.78 mg/kg/injection, schedule: Q01DX009 (ip), vehicle: saline) was 150 % of control, the T/C (endpoint: median survival time, dose: 1.0 mg/kg/injection, schedule: Q01DX005 (ip), vehicle: saline) was 120 % of control and the T/C (endpoint: median survival time, dose: 1.3 mg/kg/injection, schedule: Q01DX009 (ip), vehicle: saline) was 154 % of control and 159 % of control. The T/C (endpoint: median survival time, dose: 2.0 mg/kg/injection, schedule: Q01DX005 (ip), vehicle: saline) was 169 % of control, the T/C (endpoint: median survival time, dose: 3.6 mg/kg/injection, schedule: Q01DX009 (ip), vehicle: saline) was 100 % of control and 104 % of control and the T/C (endpoint: median survival time, dose: 5.0 mg/kg/injection, schedule: Q01DX001 (ip), vehicle: saline) was 121 % of control and 122 % of control. The T/C (endpoint: median survival time, dose: 6.0 mg/kg/injection, schedule: Q01DX009 (ip), vehicle: saline) was 110 % of control, the T/C (endpoint: median survival time, dose: 8.0 mg/kg/injection, schedule: Q01DX005 (ip), vehicle: saline) was 154 % of control and the T/C (endpoint: median survival time, dose: 8.4 mg/kg/injection, schedule: Q01DX009 (ip), vehicle: saline) was 99 % of control and 100 % of control. The T/C (endpoint: median survival time, dose: 40.0 mg/kg/injection, schedule: Q01DX001 (ip), vehicle: saline) was 153 % of control and 155 % of control and the T/C (endpoint: median survival time, dose: 80.0 mg/kg/injection, schedule: Q01DX001 (ip), vehicle: saline) was 151 % of control and 155 % of control.

With CCN(CC)CCCC(C)Nc1ccnc2ccc(-c3ccccc3)cc12 (stereo unspecified) the T/C (endpoint: mean survival time, dose: 5.0 mg/kg/injection, schedule: Q01DX001 (ip), vehicle: saline) was 100 % of control, the T/C (endpoint: mean survival time, dose: 10.0 mg/kg/injection, schedule: Q01DX001 (ip), vehicle: saline) was 100 % of control and the T/C (endpoint: mean survival time, dose: 20.0 mg/kg/injection, schedule: Q01DX001 (ip), vehicle: saline) was 91 % of control. For the same compound, the T/C (endpoint: mean survival time, dose: 40.0 mg/kg/injection, schedule: Q01DX001 (ip), vehicle: saline) was 96 % of control and the T/C (endpoint: mean survival time, dose: 80.0 mg/kg/injection, schedule: Q01DX001 (ip), vehicle: saline) was 104 % of control.

[O-][n+]1cc(-c2ccccc2)cc2ccccc21 was tested, and the T/C (endpoint: mean survival time, dose: 100.0 mg/kg/injection, schedule: Q01DX001 (ip), vehicle: saline) was 96 % of control.
